What was measured:
U251cx43-216 cells [1] = test: MTT cell viability assay; settings: Homo sapiens, 144 h
[2] = tested on: control-transfected cells (U251N2 and U251N23); test: Apoptosis by Hoechst dye staining after Tax; type: cell-based, human; settings: 4×10^−9 M, four days after treatment
Procedure: (§1) The assay was performed as we previously described (Huang et al., Cell Death Differ. 5:96-106 (1998)). Briefly, cells were fixed in Carnoy's solution (methanol:glacial […]; 3:1) and stained with 5 μg/ml of bisbenzimide trihydrochloride (Hoechst 33258) for 20 min. The morphology of nuclei was then observed with a Zeiss (Thornwood, N.Y.) photomicroscope II. At least 500 nuclei in each cell line were counted. Experiments were repeated four times.
(§2) Cx43-transfected cells (U251cx43-216 and U251cx43-217) and control-transfected cells (U251N2 and U251N23) were treated with different concentrations of Tax (0, 10^−9, and 4×10^−9). Four days after treatment, cells were analyzed for apoptosis by Hoechst dye staining.

[3] = tested on: Cx43-transfected cells (U251cx43-216 and U251cx43-217); test: Apoptosis by Hoechst dye staining after Tax; type: cell-based, human
Procedure: as §1, §2

U251N23 cells [4] = test: Clonogenicity (cell survival) assay; type: cell-based, human
Procedure: (§3) The surviving cell fraction was determined by clonogenicity assay as previously described (Huang et al., J. Cell Biol. 133:211-220 (1996)). Cells were seeded at a density of 500 cells per 60 mm plate and incubated overnight and then treated with drugs; culture was then continued for 3 weeks. Clones were fixed in 4% formaldehyde-PBS and stained with Giemsa solution. Colonies containing more than 50 cells were counted and the fraction of surviving cells was calculated. The results represented the average of three separate experiments.
(§4) Values at OD 570 reflect the relative number of viable cells.

U251cx43-216 cells [5] = test: Clonogenicity (cell survival) assay; type: cell-based, human
Procedure: as §3, §4

U251N23 cells [6] = test: MTT cell viability assay; type: cell-based; settings: Homo sapiens, 144 h, day 6 after treatment, U251N23 (control-transfected)
Procedure: In vitro viability was determined by the 3-(4,5-dimethylthiazol-2yl)-2,5-diphenyltetrazolium bromide (MTT) colorimetric assay as described in (Huang et al., Cancer Res. 55:5054-5062 (1995)). Cells (1×10^3) were plated in triplicate in 96 well microplates overnight and treated with 5 different concentrations of VP16, Tax and DOX, respectively. […] Absorbance values at 570 nm were plotted as a measure of the relative number of cells. […] Both methods gave the identical results.
as §4

[7] = tested on: Cx43-transfected clones and control-transfected clones; test: Apoptosis in the presence of MCP-1 or anti-MCP-1 antibody; type: cell-based, human; settings: normal culture conditions, low serum conditions or in response to chemotherapeutic drugs
Procedure: Cx43-transfected clones and control-transfected clones were assayed for apoptosis in the presence of MCP-1 or anti-MCP-1 antibody. […] Therefore, enhanced apoptosis under low serum conditions and decreased cell growth in cx43-transfected cells involves at least two separate pathways.

U251cx43-217 cells = test: Soft agar colony formation assay; type: cell-based, human
Procedure: (§5) Soft agar assay were performed as described previously (Huang, et al., Cancer Res. 58:5089-5096 (1998); Huang, et al., Mol. Carcinog. 30:209-217 (2001); Huang, et al., Carcinogenesis 20:485-492 (1999)). Briefly, cx43-transfected cells and control-transfected cells were assayed by seeding 1,000 cells in 0.26% agar medium into 6 well plates previously lined with 0.65% agar medium. The plates (in duplicate and repeated twice) were cultured for 3-4 weeks in the presence of different treatments and then stained with p-iodotetrazolium violet for overnight before photography and counting. Colony size equal to or greater than 15,625 μm^2 was scored as positive.
(§6) To examine the effect of down-regulation of MCP-1 on the transformed growth, cx43-transfected and control-transfected clones were assayed for their anchorage-independent growth in soft agar in the presence of MCP-1.

U251cx43-216 cells [8] = test: Soft agar colony formation assay; type: cell-based, human
Procedure: as §5, §6

cx43-transfected cells = test: Cell proliferation in presence of cytokine or conditioned medium; type: cell-based, human
Procedure: The experiment was performed as described in Huang et al., (Cancer Res. 55:5054-5062 (1995); and Oncogene 10:467-475 (1995)). Briefly, cells were seeded in 96-well plates. 24 hr later, cells were incubated in the presence of cytokine or conditioned medium for 48 hours. 0.5 μCi of ^3H-thymidine was added to each well and incubation was continuous for 24 hr. The incorporated ^3H-thymidine was then determined by a scintillation counter.
The down-regulation of MCP-1 in cx43-transfected cells raised the question of whether reversion of the transformed phenotype in cx43-transfected cell was mediated by the reduction of MCP-1 expression. To test this possibility, anti-MCP-1 neutralization antibody was added into the tissue culture medium to block the MCP-1 activity and to examine the cell proliferation by CyQUANT cell proliferation assay.

[9] = tested on: cx43- or control-transfected cells; test: Apoptosis in response to VP16 in the presence of GA; type: cell-based, human; settings: cx43- and control-transfected cells
Text: (§7) It was next determined whether cx43-mediated apoptosis was related to gap junctional communication (GJC). […] Since Lucifer yellow dye transfer may not accurately reflect the ability of intracellular substances to pass through gap junctions, apoptosis was examined in response to VP16 in the presence of α-Glycyrrhetinic acid (GA), which inhibits GJC (Davidson et al., Biochem. Biophys. Res. Commun. 134:29-36 (1986); Davidson and Baumgarten, J. Pharmacol. Exp. Ther. 266:1104-1107 (1988)). […] Consistent with previous studies, both cx43- and control-transfected cells poorly communicated each other as examined by Lucifer yellow dye transfer experiment. The effect of GA was not obvious due to poor GJC in untreated U251 cells. […] Thus, the difference in apoptosis is probably due to the presence of cx43 itself rather than GJC. Furthermore, cx43-transfected cells expressed only non-phosphorylated cx43 in both mock- and VP 16-treated cells. In contrast, when the same experimental procedure was used to detect cx43 in primary astrocytes and T51B cells, several phosphorylated isoforms were clearly observed (Huang et al., Cancer Res. 58:5089-5096 (1998)). It is generally believed that phosphorylated forms of cx43 are involved in GJC (Hossain et al., J. Cell Physiol. 174:66-77 (1998)). […]

U251N23 cells [10] = test: Gap junction communication, Lucifer yellow dye transfer; type: cell-based, human; settings: U251N23, GA 25 μM
Procedure: (§8) Gap junctional communication (GJC) was assayed by transfer of the fluorescent Lucifer yellow (LY) after single-cell micro-injection, as described previously (Huang et al., Cancer Res. 58:5089-5096 (1998)). Cells were observed under a fluorescence-inverted microscope after micro-injection at the given time points, and the number of neighboring cells labeled with fluorescent dye was recorded.
(§9) It was next determined whether cx43-mediated apoptosis was related to gap junctional communication (GJC). […] Since Lucifer yellow dye transfer may not accurately reflect the ability of intracellular substances to pass through gap junctions, apoptosis was examined in response to VP16 in the presence of α-Glycyrrhetinic acid (GA), which inhibits GJC (Davidson et al., Biochem. Biophys. Res. Commun. 134:29-36 (1986); Davidson and Baumgarten, J. Pharmacol. Exp. Ther. 266:1104-1107 (1988)). […] Consistent with previous studies, both cx43- and control-transfected cells poorly communicated each other as examined by Lucifer yellow dye transfer experiment. The effect of GA was not obvious due to poor GJC in untreated U251 cells. […] Thus, the difference in apoptosis is probably due to the presence of cx43 itself rather than GJC. Furthermore, cx43-transfected cells expressed only non-phosphorylated cx43 in both mock- and VP 16-treated cells. In contrast, when the same experimental procedure was used to detect cx43 in primary astrocytes and T51B cells, several phosphorylated isoforms were clearly observed (Huang et al., Cancer Res. 58:5089-5096 (1998)). It is generally believed that phosphorylated forms of cx43 are involved in GJC (Hossain et al., J. Cell Physiol. 174:66-77 (1998)). Therefore it is likely that cx43-mediated apoptosis in response to VP16 is not related to its gap junctional communication effect.

U251cx43-216 cells [11] = test: as above; type: cell-based, human; settings: U251cx43-216, GA 25 μM
Procedure: as §8, §9

[12] = tested on: T51B rat liver epithelial cells; test: as above; type: cell-based
Procedure: as §8
as §7, with “cells.” for “cells. In contrast, when the same experimental procedure was used to detect cx43 in primary astrocytes and T51B cells, several phosphorylated isoforms were clearly observed (Huang et al., Cancer Res. 58:5089-5096 (1998)). It is generally believed that phosphorylated forms of cx43 are involved in GJC (Hossain et al., J. Cell Physiol. 174:66-77 (1998)).”

[13] = U251cx43-216, 1 × 10^−9, 3 weeks
[14] = U251cx43-216, 4 × 10^−9, 3 weeks
[15] = U251cx43-216, 4 × 10^−10, 3 weeks

CC(=O)O[C@H]1C(=O)[C@@]2(C)[C@H]([C@H](OC(=O)c3ccccc3)[C@]3(O)C[C@H](OC(=O)[C@H](O)[C@@H](NC(=O)c4ccccc4)c4ccccc4)C(C)=C1C3(C)C)[C@]1(OC(C)=O)CO[C@@H]1C[C@@H]2O [Tax, Paclitaxel]
IC50 (U251cx43-216 cells [1]): 0.71 nM | apoptotic cells [2]: about 17% | increase in apoptosis, cx43-expressing vs control-transfected cells ([3]; Tax treatment, four days): 3- to 4 fold | cells displaying typical features of apoptosis ([3]; cx43-transfected cells, 4×10^−9 M, four days after treatment): about 65% | Colony formation (colonies counted) (U251N23 cells [4]; U251N23, 1 × 10^−9, 3 weeks): 37 +/− 6 | Colony formation (colonies counted) (U251N23 cells [4]; U251N23, 4 × 10^−9, 3 weeks): 16 +/− 2 | Colony formation (colonies counted) (U251N23 cells [4]; U251N23, 4 × 10^−10, 3 weeks): 108 +/− 9 | Colony formation (colonies counted) (U251cx43-216 cells [5]; [13]): 9 +/− 5 | Colony formation (colonies counted) (U251cx43-216 cells [5]; [14]): 4 +/− 3 | Colony formation (colonies counted) (U251cx43-216 cells [5]; [15]): 54 +/− 5 | IC50 (U251N23 cells [6]): 1.5 nM

MCP-1: Monocyte chemotactic protein-1 (MCP-1) is a member of the CC chemokine family
effect on apoptosis [7]: did not have any effect | Colony formation in soft agar (U251cx43-217 cells; U251cx43-217, MCP-1 0.1 ng/ml): 18.0 ± 2.83 | Colony formation in soft agar (U251cx43-217 cells; U251cx43-217, MCP-1 1 ng/ml): 24.5 ± 2.12 | Colony formation in soft agar (U251cx43-217 cells; U251cx43-217, MCP-1 10 ng/ml): 22.5 ± 3.53 | Colony formation in soft agar (U251cx43-217 cells; U251cx43-217, MCP-1 100 ng/ml): 20.5 ± 2.12 | Colony formation in soft agar (U251cx43-216 cells [8]; U251cx43-216, MCP-1 0.1 ng/ml): 18.0 ± 2.83 | Colony formation in soft agar (U251cx43-216 cells [8]; U251cx43-216, MCP-1 1 ng/ml): 37.5 ± 3.53 | Colony formation in soft agar (U251cx43-216 cells [8]; U251cx43-216, MCP-1 10 ng/ml): 28.5 ± 4.95 | Colony formation in soft agar (U251cx43-216 cells [8]; U251cx43-216, MCP-1 100 ng/ml): 36.0 ± 5.65 | effect on cell proliferation rate (cx43-transfected cells): specifically stimulated

CC1(C)[C@@H](O)CC[C@]2(C)[C@H]3C(=O)C=C4[C@@H]5C[C@@](C)(C(=O)O)CC[C@]5(C)CC[C@@]4(C)[C@]3(C)CC[C@@H]12 [GA, α-Glycyrrhetinic acid]
alteration of apoptosis in response to VP16 in the presence of α-Glycyrrhetinic acid [9]: No significant alteration of apoptosis | No. of Fluorescent Neighboring cells after GA treatment (U251N23 cells [10]; 5 min): 0.7 +/− 1.1 | No. of Fluorescent Neighboring cells after GA treatment (U251N23 cells [10]; 24 h): 2.2 +/− 3.7 | No. of Fluorescent Neighboring cells after GA treatment (U251N23 cells [10]; 48 h): 0.9 +/− 1.9 | No. of Fluorescent Neighboring cells after GA treatment (U251N23 cells [10]; 72 h): 2.4 +/− 4.1 | No. of Fluorescent Neighboring cells after GA treatment (U251cx43-216 cells [11]; 5 min): 0.6 +/− 1.3 | No. of Fluorescent Neighboring cells after GA treatment (U251cx43-216 cells [11]; 24 h): 0 +/− 0 | No. of Fluorescent Neighboring cells after GA treatment (U251cx43-216 cells [11]; 48 h): 0.6 +/− 1.1 | No. of Fluorescent Neighboring cells after GA treatment (U251cx43-216 cells [11]; 72 h): 0.1 +/− 0.3 | effect on GJC ([12]; T51B cells): completely blocked GJC | No. of Fluorescent Neighboring cells after GA treatment ([12]; T51B, GA 25 μM, 5 min): 0 +/− 0

COc1cccc2c1C(=O)c1c(O)c3c(c(O)c1C2=O)C[C@@](O)(C(=O)CO)C[C@@H]3O[C@H]1C[C@H](N)[C@H](O)[C@H](C)O1 [DOX, Doxorubicin]
IC50 (U251cx43-216 cells [1]): 0.82 nM | Colony formation (colonies counted) (U251N23 cells [4]; U251N23, 1 × 10^−9, 3 weeks): 15 +/− 5 | Colony formation (colonies counted) (U251N23 cells [4]; U251N23, 4 × 10^−9, 3 weeks): 6 +/− 0 | Colony formation (colonies counted) (U251N23 cells [4]; U251N23, 4 × 10^−10, 3 weeks): 147 +/− 14 | Colony formation (colonies counted) (U251cx43-216 cells [5]; [13]): 6 +/− 1 | Colony formation (colonies counted) (U251cx43-216 cells [5]; [14]): 2 +/− 3 | Colony formation (colonies counted) (U251cx43-216 cells [5]; [15]): 70 +/− 6 | IC50 (U251N23 cells [6]): 1.77 nM
